Assay results from patent US7144992B2, “Synergistic antimicrobial compositions and methods for reducing biofilm formation” (Kane Biotech Inc., priority 2004, dated 2006).

How the values were obtained:
[1] = Solubility; conditions: for solubility in organic solvents: DMSO, methanol, acetone and acetonitrile
[2] = tested on: thioredoxin reductase; conditions: enzyme crosslinked with the thiol-specific reagent; Donna et al., Prot. Sci. 7:369–375, 1998; cited from earlier work

Row | Structure (SMILES) | solubility in organic solvents [1] | solubility in water [1] | decrease in thioredoxin reductase activity [2]
1 | O=C1C=CC(=O)N1c1ccc2ccc3cccc4ccc1c2c34 [PyrM, N-(1-pyrenyl) maleimide] | soluble in organic solvents | not soluble in water | 
2 | O=C1C=CC(=O)N1c1ccccc1N1C(=O)C=CC1=O [oPDM, N,N′-(1,2-phenylene) dimaleimide] | soluble in organic solvents | not soluble in water | 95%
